# According to PMC7504104, “Dietary Intake of Rosmarinic Acid Increases Serum Inhibitory Activity in Amyloid A Aggregation and Suppresses Deposition in the Organs of Mice” (International Journal of Molecular Sciences, 2020):
# Biological target: T1, recombinant mouse SAA 1.1 (mSAA) (Mus musculus, UniProt P05366)
# T1 construct: gene Saa1; cDNA in pET-15b, expressed in E. coli Rosetta, Ni Sepharose purified
# T1 sequence (P05366 20-122): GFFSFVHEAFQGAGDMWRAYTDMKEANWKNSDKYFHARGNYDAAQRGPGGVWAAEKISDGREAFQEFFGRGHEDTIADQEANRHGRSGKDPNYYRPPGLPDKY
# Assay: quantum-dot fluorescence imaging of amyloid aggregation inhibition (MSHTS)
# Assay type: biochemical
smiles,measurement,value
"O=C(/C=C/c1ccc(O)c(O)c1)O[C@H](Cc1ccc(O)c(O)c1)C(=O)O [RA, rosmarinic acid]",EC50,33.2 ± 2.19 µM
